The results in this text go back to EP2698384A1, “Detection of synthetic cannabinoids” (priority 2012, dated 2014).

The IC50 is the midpoint of a concentration-inhibition curve.

Where a name gives a salt, the structure may show the parent alone. Read-outs that look alike come from different tables or passages of the source.

What all share (format): binding, sheep
Test [1] has as its system Antibody to Immunogen V. As to the method:
(§1) The wells of an enhanced binding 96 well polystyrene microtiter plate were coated with IgG fraction of antiserum raised to Immunogen VI, diluted in 10mM Tris, pH8.5 (125µl/well). The appropriate antibody coating dilution was determined using standard ELISA checkerboard techniques. The plate was incubated overnight at 4°C, washed 4 times over 10 minutes with Tris buffered saline containing Tween 20 (TBST) and tapped dry. Standard solutions of RCS-4 were prepared in TBST at 0, 0.3125, 0.625, 1.25, 2.5, 5, 10 and 20ng/ml, and 50µl of each was added to the appropriate wells (see figure 1). 75µl of conjugate (appropriate hapten-HRP) diluted in Tris buffer (pH 7.2) containing EDTA, D-mannitol, sucrose, thimerosal and BSA, was added to each of the wells. The appropriate dilution of conjugate was also determined using standard ELISA checkerboard techniques. The plate was incubated at 25°C for 1 hour. Excess unbound conjugate was removed by washing 6 times over a 10 minute period with TBST. 125µl oftetramethylbenzidine (TMB) substrate solution was added to each well of the plate that was then incubated for 20 minutes in the dark at room temperature. The reaction was terminated by addition of 125µl 0.2M H2SO4 to each well. The absorbance was then measured at 450nm using a microtiter plate reader. The data are inputted to a computer program called 'KC Junior'. It is a 4 parameter fit curve and allow the calculatation of concentrations between the standard runs. This program is used to calculate the IC50s by dividing the 0ng/ml OD value by 2 and obtaining the concentration value from the curve for this OD.
In a similar manner to that described above, the wells of a 96-well microtiter plate were coated with the IgG fraction of the antiserum raised to Immunogens IV, V, VII or VIII. Standard solutions (RCS-8 for Immunogen V) were prepared in TBST at 0, 1.25, 2.5, 5, 10, 20, 40 and 80ng/ml and conjugate was employed as detection reagent.
(§2) The data set our in Tables 3 and 4 are generated using antibodies raised against the indicated Immunogens in a competitive binding assay with the indicated tracers, using the indicated standards: Table 2
(§3) In order to determine the specificity of the competitive ELISAs, standard solutions of a range of structurally similar synthetic cannabinoids and their metabolites were prepared in TBST. Using the calibration curves generated and employing a single level of cross reactants, these were used to determine the cross-reactivity of each immunoassay with these substances. Table 4: Cross reactivity of the competitive ELISAs for synthetic cannabinoids and their metabolites

The subject of test [2] is Antibody to Immunogen VI. Particulars: Cross-reactants at 100 ng/ml; 1000ng/ml; single level of cross reactants. The method, then: as §1, §2, §3
Test [3] deals with Antibody to Immunogen III. Particulars: Cross-reactants at 100 ng/ml; 1000ng/ml; single level of cross reactants. As to the method: as §1
In a similar manner to that described above, the wells of a 96-well microtiter plate were coated with the IgG fraction of the antiserum raised to Immunogens I, II or III. Standard solutions (JWH-250 for Immunogen III) were applied at 0, 0.625, 1.25, 2.5, 5, 10, 20 and 40ng/ml and conjugate was employed as detection reagent.
as §2, §3

Where [4] appears, read: Cross-reactants at 100 ng/ml, 1000ng/ml, single level of cross reactants.

Regarding `CCCCCn1cc(C(=O)C23CC4CC(CC(C4)C2)C3)c2ccccc21` [JWH 018 adamantyl analog], the “%B/B0” value in test [1] (setting [4]) is 86.65%; in test [2], 93.91%; in test [3] it was 84.69%.

On to `CCCCCn1cc(C(=O)Cc2cccc(C)c2)c2ccccc21` [JWH 251 3-methylphenyl isomer], for which the “%B/B0” value in test [1] (setting [4]) turned out to be 26.65%; in test [2] it was 73.53%; in test [3], 21.39%.

For the compound `CCCC(C)n1cc(C(=O)c2cccc3ccccc23)c2ccccc21` (single isomer, unassigned) [JWH-018 N-(1-methylbutyl) isomer], the “%B/B0” value came out at 76.65% in test [1] (setting [4]), 85.57% in test [2] and 87.31% in test [3].

Turning to `CCCCn1cc(C(=O)c2cccc3ccccc23)c2cccc(O)c21`, the entries for the “%B/B0” value in test [1] (setting [4]), in test [2] and in test [3] were 73.04%, 81.62% and 95.81%, respectively.

In the case of `COc1ccccc1CC(=O)c1cn(CCCCCC(=O)O)c2ccccc12` [JWH 250 N-(5-carboxypentyl) metabo lite], the “%B/B0” value is 8.60% in test [1] (setting [4]), 85.31% in test [2] and 89.61% in test [3].

As for `CCCCCn1cc(C(=O)c2cccc3ccc(C)cc23)c2ccccc21` [JWH 122 7-methylnaphthyl isomer], the “%B/B0” value was found to be 78.80% in test [1] (setting [4]), 86.92% in test [2] and 71.72% in test [3].

For the compound `OCCc1c[nH]c2ccc(O)cc12` [5-hydroxytryptophol], the “%B/B0” value in test [1] (setting [4]) stood at 90.61%; in test [2], 95.67%; in test [3], 85.39%.

Take `COc1ccccc1CC(=O)c1cn(CCC2CCCCC2)c2ccccc12` [RCS-8 (SR-18)]: the “%B/B0” value in test [1] (setting [4]) was found to be 8.34%; in test [1] (standard curve, RCS-8 1.25 ng/ml) it was 82%; in test [1] (standard curve, RCS-8 2.5 ng/ml), 71%; in test [1] (standard curve, RCS-8 5 ng/ml), 57%; in test [1] (standard curve, RCS-8 10 ng/ml), 43%; in test [1] (standard curve, RCS-8 20 ng/ml), 34%. The “%B/B0” value turned out to be 25% in test [1] (standard curve, RCS-8 40 ng/ml); 19% in test [1] (standard curve, RCS-8 80 ng/ml); 85.46% in test [2]; 64.72% in test [3]. In addition, the “IC50” value in test [1] (standard RCS-8, standard concentration which produces 50% B/B0) stood at 7.23 ng/mL.

Consider `CN1CCCCC1Cn1cc(C(=O)c2ccccc2I)c2ccccc21` (centres unmarked) [AM-223], for which the “%B/B0” value in test [1] (setting [4]) is 54.35%; in test [2], 79.16%; in test [3], 95.28%.

In the case of `CCCCn1cc(C(=O)c2cccc3ccccc23)c2c(O)cccc21`, the “%B/B0” value is recorded as 76.09% in test [1] (setting [4]), 84.39% in test [2] and 84.57% in test [3].

In the case of `O=C(c1ccc(I)cc1)c1cn(CCCCCF)c2ccccc12` [AM-694 4-iodo isomer], the “%B/B0” value in test [1] (setting [4]) is listed as 77.65%; in test [2], 16.99%; in test [3], 65.53%.

On to `COc1ccc(C(=O)c2cn(CCCCCC(=O)O)c3ccccc23)cc1` [RCS-4 N-(5-carboxypentyl) metabolite], for which the “%B/B0” value in test [1] (setting [4]) is on record as 60.79%; in test [2], 4.25%; in test [3], 91.87%.

Consider `CCCCCCCC(C)(C)c1ccc(C2CCCC(O)C2)c(O)c1` (centres unmarked), for which the “%B/B0” value in test [1] (setting [4]) is 86.41%; in test [2] it was 100.84%; in test [3], 95.39%.

For the compound `CCCn1c(C)c(C(=O)c2cccc3ccccc23)c2ccccc21` [JWH-015], the results for the “%B/B0” value in test [1] (setting [4]), in test [2] and in test [3] were 73.42%, 77.06% and 93.97%, respectively.

For `CCCCCn1c(C)c(C(=O)c2cccc3ccccc23)c2ccccc21` [JWH-007], the “%B/B0” value was 75.22% in test [1] (setting [4]), 81.74% in test [2] and 81.87% in test [3].

For `CCCCn1c(C)c(C(=O)c2cccc3ccccc23)c2ccccc21` [JWH-016], the “%B/B0” value came out at 69.38% in test [1] (setting [4]), 80.10% in test [2] and 82.93% in test [3].

Consider `CCCCCc1cc(O)c2c(c1)OC(C)(C)c1ccc(C)cc1-2` [Cannabinol], for which the figures for the “%B/B0” value in test [1] (setting [4]), in test [2] and in test [3] were 64.54%, 95.90% and 97.02%, respectively.

For the compound `CCCCCn1cc(C(=O)c2cccc3ccccc23)c2cc(O)ccc21`, the results for the “%B/B0” value in test [1] (setting [4]), in test [2] and in test [3] were 88.70%, 95.94% and 96.24%, respectively.

Consider `CS(=O)(=O)O.Cc1c(C(=O)c2cccc3ccccc23)c2cccc3c2n1[C@H](CN1CCOCC1)CO3` [(+)WIN 55212-2 (mesylate)], for which the results for the “%B/B0” value in test [1] (setting [4]), in test [2] and in test [3] were 68.43%, 91.65% and 93.28%, respectively.

As for `CCCCCCC(C)(C)c1cc(O)c2c(c1)OC(C)(C)[C@@H]1CC=C(CO)C[C@@H]21` [HU-210], the “%B/B0” value in test [1] (setting [4]) amounted to 67.43%; in test [2] it was 90.89%; in test [3] it was 91.13%.

On to `CCCCCn1cc(C(=O)Cc2cccc(Cl)c2)c2ccccc21` [JWH 203 3-chloro isomer (JWH-237)], for which the “%B/B0” value in test [1] (setting [4]) came to 27.22%; in test [2], 72.53%; in test [3], 22.69%.

Take `COc1ccccc1CC(=O)c1cn(CCCCCO)c2ccccc12` [JWH 250 N-(5-hydroxypentyl) metabo lite]: the figures for the “%B/B0” value in test [1] (setting [4]), in test [2] and in test [3] were 6.88%, 78.58% and 48.72%, respectively.

As to `CCCCCn1cc(C(=O)Cc2ccc(OC)cc2)c2ccccc21` [JWH-201], the “%B/B0” value in test [1] (setting [4]) was determined as 68.62%; in test [2], 69.32%; in test [3] it was 27.93%.

As for `O=C(O)CCCCn1cc(C(=O)c2cccc3ccccc23)c2ccccc21` [JWH-018 N-pentanoic acid metabolite], the entries for the “%B/B0” value in test [1] (setting [4]), in test [2] and in test [3] were 72.42%, 65.90% and 100.98%, respectively.

Regarding `CCCCCn1cc(C(=O)c2ccccc2OC)c2ccccc21` [RCS-4 2-methoxy isomer], the “%B/B0” value in test [1] (setting [4]) worked out at 68.38%; in test [2], 81.06%; in test [3], 64.43%.

As for `CCCCCn1cc(C(=O)c2cccc3ccccc23)c2c(O)cccc21`, the “%B/B0” value in test [1] (setting [4]) was 83.42%; in test [2] it was 92.00%; in test [3], 82.22%.

For the compound `CCCCCn1cc(C(=O)c2cccc3cc(C)ccc23)c2ccccc21` [JWH 122 6-methylnaphthyl isomer], the “%B/B0” value in test [1] (setting [4]) worked out at 77.08%; in test [2], 84.77%; in test [3], 73.75%.

On to `CCCCCn1cc(C(=O)c2ccc(Cl)c3ccccc23)c2ccccc21` [JWH-398], for which the “%B/B0” value is given as 65.76% in test [1] (setting [4]), 72.30% in test [2] and 71.37% in test [3].

In the case of `CCCCCn1cc(C(=O)c2cccc(OC)c2)c2ccccc21` [RCS-4 3-methoxy isomer], the “%B/B0” value worked out at 66.18% in test [1] (setting [4]), 41.84% in test [2] and 58.00% in test [3].

Turning to `CCCC(C)(C)c1ccc2c(c1)OC(C)(C)[C@@H]1CC=C(C)C[C@@H]21` [JWH-133], the “%B/B0” value in test [1] (setting [4]) was 90.40%; in test [2], 93.73%; in test [3], 97.40%.

Take `CCCCCCC(C)(C)c1cc(O)c2c(c1)OC(C)(C)[C@H]1CC=C(CO)C[C@H]21` [HU-211 (Dexanabinol), Dexanabinol]: the results for the “%B/B0” value in test [1] (setting [4]), in test [2] and in test [3] were 71.68%, 98.97% and 95.96%, respectively.

Regarding `NCCc1c[nH]c2ccc(O)cc12` [Serotonin HCl], the “%B/B0” value in test [1] (setting [4]) was determined as 85.91%; in test [2] it was 98.60%; in test [3] it was 87.69%.

Consider `O=C(c1cccc2ccccc12)c1cn(CCN2CCOCC2)c2ccc(O)cc12` [JWH-200 5-hydroxyindole metabolite], for which the “%B/B0” value in test [1] (setting [4]) was found to be 82.38%; in test [2], 93.65%; in test [3], 96.49%.

`CCCCCn1cc(C(=O)Cc2ccc(Cl)cc2)c2ccccc21` [JWH-206 (JWH-203 4-chloro isomer)]: the “%B/B0” value worked out at 51.00% in test [1] (setting [4]), 78.35% in test [2] and 26.33% in test [3].
